From article PMC5132201, “Formylated MHC Class Ib Binding Peptides Activate Both Human and Mouse Neutrophils Primarily through Formyl Peptide Receptor 1” (PLoS ONE, 2016)
Square brackets hold non-standard residues; d marks the D form. Ends that are not written are not given here. Peptide text beside a SMILES is read from it. * marks the point of attachment. For = O=C*

Legend:
[1] = system: M3; conditions: high-, medium- and low-binders by induction of M3 expression on P388-M3 transfected cells; cited from earlier work
[2] = biological target: T1, bone marrow derived mouse neutrophils (Mus musculus, UniProt P33766); conditions: for Relative potency, mouse versus human neutrophils: comparison of EC50 values of NADPH-oxidase activation in the two species; for EC50, NADPH-oxidase activity (superoxide production): TNF-α primed bone marrow derived mouse neutrophils, isoluminol/HRP chemiluminescence, 37°C, peak response as percent of maximal response, mean of 3-4 independent experiments
T1 sequence (P33766 1-364): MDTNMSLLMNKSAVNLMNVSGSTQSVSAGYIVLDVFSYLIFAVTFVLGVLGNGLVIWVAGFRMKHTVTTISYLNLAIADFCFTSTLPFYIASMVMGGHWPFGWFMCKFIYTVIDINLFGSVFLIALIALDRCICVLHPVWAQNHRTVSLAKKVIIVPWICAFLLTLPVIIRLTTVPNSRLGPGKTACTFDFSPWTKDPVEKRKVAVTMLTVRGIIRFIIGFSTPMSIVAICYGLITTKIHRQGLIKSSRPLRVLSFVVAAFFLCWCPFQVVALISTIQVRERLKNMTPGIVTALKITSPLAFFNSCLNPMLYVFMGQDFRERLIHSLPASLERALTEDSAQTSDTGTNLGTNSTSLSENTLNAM

[3] = system: FPR2; experiment: NADPH-oxidase activity in human neutrophils pre-incubated with the FPR2 antagonist PBP10; type: cell-based; conditions: human neutrophils pre-incubated 5 min at 37°C with 1 μM PBP10 (FPR2 antagonist)
Experimental: (§1) NADPH-oxidase activity was determined using isoluminol and HRP-enhanced chemiluminescence (CL) systems that allow for the determination of superoxide production. […] The tubes containing 4 U HRP and 10 μg/ml isoluminol together with the cells were equilibrated in the Biolumat for 10 min at 37°C, after which the stimulus (100 μl) was added. The light emission was recorded continuously.
(§2) Neutrophil NADPH-oxidase activity was measured by an isoluminol/HPR chemiluminescence system. […] (10 nM; time for addition indicated by an arrow). […] (1 μM) in the presence or absence (control) of FPR specific inhibitors. Abscissa, Time of study (min); ordinate, superoxide production (in arbitrary light units, cpmx10^-6). […] Data are expressed as mean ± SD from four independent experiments. Abscissa, agonist concentration (M); ordinate, superoxide production (percent of max).

[4] = system: FPR1; experiment: NADPH-oxidase activity in human neutrophils pre-incubated with the FPR1 antagonist cyclosporine H; type: cell-based; conditions: for Effect of cyclosporine H on the peptide-induced activity: human neutrophils pre-incubated 5 min at 37°C with 1 μM cyclosporine H (FPR1 antagonist); for Preferred receptor: human neutrophils, from cyclosporine H / PBP10 sensitivity
Experimental: as §1, §2

[5] = biological target: T2, human neutrophils (Homo sapiens, UniProt P21462); experiment: NADPH-oxidase activity (superoxide production), isoluminol/HRP chemiluminescence, human neutrophils; type: cell-based; conditions: for EC50, NADPH-oxidase activity (superoxide production): isoluminol/HRP chemiluminescence, 37°C, peak response as percent of maximal response, mean of 3-4 independent experiments; for Concentration needed to induce full NADPH-oxidase activity: efficacy close to that of fMIFL
T2 sequence (P21462 1-350): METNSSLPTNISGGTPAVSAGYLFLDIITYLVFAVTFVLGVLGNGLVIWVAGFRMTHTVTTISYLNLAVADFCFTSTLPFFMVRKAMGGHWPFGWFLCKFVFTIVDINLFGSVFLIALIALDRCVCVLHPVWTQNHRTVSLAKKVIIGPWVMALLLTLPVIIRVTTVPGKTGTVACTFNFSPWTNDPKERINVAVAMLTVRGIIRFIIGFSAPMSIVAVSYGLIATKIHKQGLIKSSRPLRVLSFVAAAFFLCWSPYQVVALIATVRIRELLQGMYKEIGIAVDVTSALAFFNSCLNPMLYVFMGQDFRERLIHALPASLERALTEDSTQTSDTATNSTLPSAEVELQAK

[6] = system: H2-M3; conditions: crystal structure study; cited from earlier work
Description: Much less is known about the murine Fprs. It is clear that mouse neutrophils express orthologous of FPR1 and FPR2 (Fpr1 and Fpr2, respectively), but the pharmacological similarities/differences between the human and mouse neutrophil receptors have not been characterized in detail. […] In addition to Fprs, another immune response system, the H2-M3 complex, has evolved in ...

[7] = system: Fpr2^-/- neutrophils; experiment: NADPH-oxidase activity in neutrophils from wild type versus Fpr2-/- mice; type: cell-based; conditions: mouse neutrophils; from WT versus Fpr2-/- cells
Description: Mice (10–16 weeks of age) were killed by cervical dislocation, the femurs and tibias were removed and freed of soft tissue attachments, and the extreme distal tip of each extremity was cut off. KRG without Ca^2+ and Mg^2+ (KRG-) was forced through the bone by using a 1-ml syringe with a 27-gauge needle. After dispersing cell clumps and removing the debris, the bone marrow granulocytes were isolated according to an earlier described procedure [26] with some modifications. Briefly, cell suspensions in 2 ml of KRG (−) were laid on top of a three-layer Percoll gradient (1.095, 1.085, and 1.070 g/ml). The density of each Percoll solution was verified using density marker beads. […] The cell number and population of bone marrow cells were determined by flow cytometry.
NADPH-oxidase activity was determined using isoluminol and HRP-enhanced chemiluminescence (CL) systems that allow for the determination of superoxide production [27, 28]. […] The light emission was recorded continuously.
Naïve bone marrow cells produce very low level of superoxide upon stimulation and to increase this production, the cells were routinely primed for one hour at RT follow by mouse recombinant TNF-α (10 ng/ml, final concentration) priming for a period of 20 min at 37°C, after which the cells were stimulated and ROS production was determined as described above.

[8] = biological target: formyl peptide receptor 1 (human) (human (endogenous in neutrophils)) (UniProt P21462)
[9] = biological target: formyl peptide receptor 1 (human) (human (endogenous in neutrophils)) (UniProt P21462); remark: listed apart in the source
[10] = biological target: formyl peptide receptor 1 (mouse) (mouse (endogenous in bone marrow neutrophils)) (UniProt P33766)
[11] = biological target: formyl peptide receptor 1 (human) (human (endogenous in neutrophils)) (UniProt P21462); remark: listed apart in the source

## fMWYYLF
[1]
  M3 binding affinity group: lowest binding affinity
[2]
  Relative potency, mouse versus human neutrophils: more potent for murine cells than for human cells
[2]; mouse neutrophils
  Potency rank among the peptides: most potent to activate mouse neutrophils

## MYFINILTL
[3]
  Effect of PBP10 on the peptide-induced activity: inhibited by PBP10
[4]
  Effect of cyclosporine H on the peptide-induced activity: not by cyclosporine H
  Preferred receptor: FPR2
[2]
  NADPH-oxidase activity induced: No activity
[5]; human neutrophils, concentrations lower than 1 μM
  NADPH-oxidase activity induced: No activity
[5]; human neutrophils, peptide 1 μM (Fig 1A inset)
  NADPH-oxidase activity induced: very low level of activity

## fMFFLDA
[1]
  M3 binding affinity group: middle range
[2]
  Relative potency, mouse versus human neutrophils: very similar in the two species

## fGYFINILTL
[2]
  Neutrophil activation: Neither human nor mouse neutrophils could be activated
[5]
  Neutrophil activation: Neither human nor mouse neutrophils could be activated

## fMIVVLV [formylated peptide from a Mycobacterium tuberculosis pyrophosphohydrolase]
[1]
  M3 binding affinity group: highest M3 affinity
[2]
  EC50, NADPH-oxidase activity (superoxide production): low nM range
  Relative potency, mouse versus human neutrophils: more potent on mouse cells than on human cells
[5]; human neutrophils
  EC50, NADPH-oxidase activity (superoxide production): low nM range

## fMLFAAL [formylated peptide from a Mycobacterium tuberculosis permease]
[1]
  M3 binding affinity group: lowest binding affinity
[2]
  Relative potency, mouse versus human neutrophils: potencies were reversed
[5]; human neutrophils
  Potency rank among the peptides: most potent to activate human neutrophils
  Concentration needed to induce full NADPH-oxidase activity: around 100 nM

## fMIVIL [formylated peptide from a not identified protein in Listeria monocytogenes]
[1]
  M3 binding affinity group: highest M3 affinity
[2]
  EC50, NADPH-oxidase activity (superoxide production): low nM range
  Relative potency, mouse versus human neutrophils: order of potency was reversed
[5]; human neutrophils
  EC50, NADPH-oxidase activity (superoxide production): low nM range

## GYFINILTL
[2]
  Neutrophil activation: Neither human nor mouse neutrophils could be activated
[5]
  Neutrophil activation: Neither human nor mouse neutrophils could be activated

## CC[C@H](C)[C@H](NC(=O)[C@H](CC(N)=O)NC(=O)[C@@H](NC(=O)[C@H](Cc1ccccc1)NC(=O)[C@H](Cc1ccc(O)cc1)NC(=O)[C@H](CCSC)NC=O)[C@@H](C)CC)C(=O)N[C@@H](CC(C)C)C(=O)N[C@H](C(=O)N[C@@H](CC(C)C)C(=O)O)[C@@H](C)O (For-MYFINILTL-OH; C-terminus assumed)
[6]
  Preference of H2-M3 for binding the N-formylated over the non-formylated peptide: 10^4 fold
[3]
  Effect of PBP10 on the peptide-induced activity: no inhibition
[4]
  Effect of cyclosporine H on the peptide-induced activity: inhibited
  Preferred receptor: FPR1
[7]
  Preferred receptor: Fpr1
[2]
  EC50: 14 nM
  EC50, NADPH-oxidase activity (superoxide production): low nM range
[5]; human neutrophils, compared with fMLF or fMIFL
  Agonist efficacy (full/partial): full agonist
[5]; human neutrophils
  Concentration needed to induce full NADPH-oxidase activity: around 100 nM

## fMILLV [formylated peptide from a Mycobacterium tuberculosis transport permease]
[1]
  M3 binding affinity group: highest M3 affinity
[2]
  EC50, NADPH-oxidase activity (superoxide production): low nM range
  Relative potency, mouse versus human neutrophils: equally potent
[5]; human neutrophils
  Concentration needed to induce full NADPH-oxidase activity: around 100 nM
  EC50, NADPH-oxidase activity (superoxide production): low nM range

## For-[dM]YFINILTL [fmYFINILTL]
[8]
  EC50 of superoxide release from human neutrophils: 200 nM

## For-MYFINILTL [f…]
[9]
  EC50 of NADPH-oxidase activity (superoxide production, isoluminol/HRP chemiluminescence) in human neutrophils: 5 nM

## For-MFLIDV [fMFLIDV]
[10]
  EC50 of NADPH-oxidase activity in mouse neutrophils: 1 nM
[11]
  EC50 of NADPH-oxidase activity in human neutrophils: 100 nM
